What was measured:
Settings in all cases: 48 h
P12-Ichikawa [1] = test: AUC of viability dose-response curve (% viability x log10 dose units); higher = less sensitive
In short: (§1)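 Leukemia cells adapted to each medium (500 or 1000 cells/well, 1536-well plates) were exposed to library compounds in DMSO for 48 h at 37°C at 11 threefold doses, 47 μM to 0.79 nM. Luminescence by CellTiter-Glo One was normalised per plate to DMSO and cell-free wells, then fitted with a four-parameter log-logistic curve on log10 dose. Curves above full viability were scaled and quality-control failures removed before area under the curve was integrated by trapezoidal rule.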

SEM cells [2] = test: as above
In short: as §1

NOMO1 [3] = test: as above
In short: as §1

P12-Ichikawa [4] = test: cell viability relative to DMSO control; higher = less cytotoxic
In short: (§2)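 In 1536-well plates, 5 μl of leukemia cells were seeded per well: 500 cells/well for NOMO1 or SEM and 1000 cells/well for P12-Ichikawa. Each line had first been adapted for at least four passages in each medium. Library compounds in DMSO were pin-dosed at 11 threefold concentrations between 47 μM and 0.79 nM, and CellTiter-Glo One luminescence was read after 48 h at 37°C. Viability is a per-plate percentage relative to DMSO wells, with cell-free wells as background.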

SEM cells [5] = test: as above
In short: as §2

NOMO1 [6] = test: as above
In short: as §2

CC(/C=C/C(=O)NO)=C\[C@@H](C)C(=O)c1ccc(N(C)C)cc1
AUC of viability dose-response curve
Settings	NOMO1 [3]	P12-Ichikawa [1]	SEM cells [2]
HPLM + 10% dialyzed FBS	337	325	290
RPMI 5 mM glucose + 10% FBS	339	315	295
RPMI 5 mM glucose + 10% dialyzed FBS	336	316	292

cell viability [%]
Settings	NOMO1 [6]	P12-Ichikawa [4]	SEM cells [5]
HPLM + 10% dialyzed FBS, 0.000781 µM	112	111	108
HPLM + 10% dialyzed FBS, 0.00234 µM	104	115	126
HPLM + 10% dialyzed FBS, 0.00702 µM	107	114	109
HPLM + 10% dialyzed FBS, 0.0211 µM	104	107	100
HPLM + 10% dialyzed FBS, 0.0632 µM	134	109	111
HPLM + 10% dialyzed FBS, 0.19 µM	122	114	101
HPLM + 10% dialyzed FBS, 0.569 µM	108	90.5	59
HPLM + 10% dialyzed FBS, 1.71 µM	57	48.4	8.01
HPLM + 10% dialyzed FBS, 5.12 µM	5.04	3.82	3.01
HPLM + 10% dialyzed FBS, 15.4 µM	4.16	1.6	2.86
HPLM + 10% dialyzed FBS, 46.1 µM	2.85	0.388	2.07
RPMI 5 mM glucose + 10% FBS, 0.000781 µM	89.8	116	112
RPMI 5 mM glucose + 10% FBS, 0.00234 µM	100	116	117
RPMI 5 mM glucose + 10% FBS, 0.00702 µM	109	119	115
RPMI 5 mM glucose + 10% FBS, 0.0211 µM	98.8	114	97.7
RPMI 5 mM glucose + 10% FBS, 0.0632 µM	93.9	119	115
RPMI 5 mM glucose + 10% FBS, 0.19 µM	109	111	115
RPMI 5 mM glucose + 10% FBS, 0.569 µM	89.2	98.3	66.2
RPMI 5 mM glucose + 10% FBS, 1.71 µM	59.5	28.3	5.17
RPMI 5 mM glucose + 10% FBS, 5.12 µM	5.72	2.14	3.1
RPMI 5 mM glucose + 10% FBS, 15.4 µM	3.5	1.05	2.52
RPMI 5 mM glucose + 10% FBS, 46.1 µM	2.44	0.409	1.53
RPMI 5 mM glucose + 10% dialyzed FBS, 0.000781 µM	111	107	102
RPMI 5 mM glucose + 10% dialyzed FBS, 0.00234 µM	120	113	112
RPMI 5 mM glucose + 10% dialyzed FBS, 0.00702 µM	122	109	116
RPMI 5 mM glucose + 10% dialyzed FBS, 0.0211 µM	114	116	105
RPMI 5 mM glucose + 10% dialyzed FBS, 0.0632 µM	108	110	106
RPMI 5 mM glucose + 10% dialyzed FBS, 0.19 µM	115	107	102
RPMI 5 mM glucose + 10% dialyzed FBS, 0.569 µM	95.1	91.8	56.2
RPMI 5 mM glucose + 10% dialyzed FBS, 1.71 µM	65	29.8	8.19
RPMI 5 mM glucose + 10% dialyzed FBS, 5.12 µM	5.26	2.07	3.94
RPMI 5 mM glucose + 10% dialyzed FBS, 15.4 µM	5	1.68	3.72
RPMI 5 mM glucose + 10% dialyzed FBS, 46.1 µM	2.94	0.629	1.86

Cc1[nH]c(/C=C2\C(=O)Nc3ccccc32)c(C)c1CCC(=O)O
AUC of viability dose-response curve
Settings	NOMO1 [3]	P12-Ichikawa [1]	SEM cells [2]
HPLM + 10% dialyzed FBS	433	406	245
RPMI 5 mM glucose + 10% FBS	434	408	288
RPMI 5 mM glucose + 10% dialyzed FBS	457	419	236

cell viability [%]
Settings	NOMO1 [6]	P12-Ichikawa [4]	SEM cells [5]
HPLM + 10% dialyzed FBS, 0.000781 µM	92.3	95.3	55
HPLM + 10% dialyzed FBS, 0.00234 µM	101	101	85.6
HPLM + 10% dialyzed FBS, 0.00702 µM	108	99.3	76.3
HPLM + 10% dialyzed FBS, 0.0211 µM	114	105	81.6
HPLM + 10% dialyzed FBS, 0.0632 µM	113	111	68.9
HPLM + 10% dialyzed FBS, 0.19 µM	106	114	84
HPLM + 10% dialyzed FBS, 0.569 µM	99.9	88.7	6.38
HPLM + 10% dialyzed FBS, 1.71 µM	118	104	32.1
HPLM + 10% dialyzed FBS, 5.12 µM	105	73.1	26.4
HPLM + 10% dialyzed FBS, 15.4 µM	51.3	32.2	26.5
HPLM + 10% dialyzed FBS, 46.1 µM	23.8	6.87	18.7
RPMI 5 mM glucose + 10% FBS, 0.000781 µM	95.9	105	71.9
RPMI 5 mM glucose + 10% FBS, 0.00234 µM	112	103	97.7
RPMI 5 mM glucose + 10% FBS, 0.00702 µM	108	93.9	108
RPMI 5 mM glucose + 10% FBS, 0.0211 µM	114	110	82.6
RPMI 5 mM glucose + 10% FBS, 0.0632 µM	115	110	82.4
RPMI 5 mM glucose + 10% FBS, 0.19 µM	123	118	86.9
RPMI 5 mM glucose + 10% FBS, 0.569 µM	111	87.1	6.07
RPMI 5 mM glucose + 10% FBS, 1.71 µM	104	106	37.1
RPMI 5 mM glucose + 10% FBS, 5.12 µM	110	72.9	39.1
RPMI 5 mM glucose + 10% FBS, 15.4 µM	58.7	42	30.9
RPMI 5 mM glucose + 10% FBS, 46.1 µM	18.4	7.11	18.3
RPMI 5 mM glucose + 10% dialyzed FBS, 0.000781 µM	97	102	47.4
RPMI 5 mM glucose + 10% dialyzed FBS, 0.00234 µM	118	105	82
RPMI 5 mM glucose + 10% dialyzed FBS, 0.00702 µM	96.1	113	80.5
RPMI 5 mM glucose + 10% dialyzed FBS, 0.0211 µM	98.1	110	76.1
RPMI 5 mM glucose + 10% dialyzed FBS, 0.0632 µM	113	113	75.5
RPMI 5 mM glucose + 10% dialyzed FBS, 0.19 µM	106	112	83.3
RPMI 5 mM glucose + 10% dialyzed FBS, 0.569 µM	102	91.1	5.75
RPMI 5 mM glucose + 10% dialyzed FBS, 1.71 µM	109	101	26.5
RPMI 5 mM glucose + 10% dialyzed FBS, 5.12 µM	103	82.3	27.6
RPMI 5 mM glucose + 10% dialyzed FBS, 15.4 µM	101	65.2	22
RPMI 5 mM glucose + 10% dialyzed FBS, 46.1 µM	22.7	11.2	15.4
